Literature values in patent publication US9078816B2, “Buccal, polar and non-polar spray containing ondansetron” (Suda Ltd., priority 1997, dated 2015).

Columns and labels:
[1] = include headaches, constipation, and dizziness

Cc1nccn1CC1CCc2c(c3ccccc3n2C)C1=O (stereo not drawn) [Ondansetron]
metabolism (liver): extensively metabolized by the liver
oral bioavailability (oral administration): about 60%
adverse effects [1]: mild
